Assay results as given in patent US20050069907A1, “Methods for using double-mutant RNA polymerases with reduced discrimination between non-canonical and canonical nucleoside triphosphates” (priority 2002, published 2005).

How the values were obtained:
[1] = tested on: pT75; assay: Activity with NTPs containing different 2′-substituents; type: biochemical; design: unit not given here
Protocol: Activity was determined with pT75 as template but with one of the rNTPs replaced with a dNTP or a 2′-modified NTP. The labeling NTP was UTP (in reactions with 2′-modified CTPs or ATPs) or CTP (in reactions with 2′-modified UTPs). Y639F and Y639M represent enzymes with substitutions of the wild-type (W.T.) tyrosine at position 639 by phenyalanine (F) or methionine (M), respectively.

[2] = tested on: Bgl II-cut pPK5; assay: Run-off transcription with 2′-OMe- or 2′-azido-NTPs on Bgl II-cut pPK5; type: biochemical
Protocol: RNAPs were prepared as described (Brieba, L G, and Sousa, R. Biochemistry, 39: 919-923, 2000). Transcription reactions were carried out for 30 min. at room temperature in 40 mM Tris-Cl, pH 8.0, 6 mM MgCl2, 10 mM NaCl, 2 mM spermidine, with templates at 10^−7 M and RNAPs at 2×10^−7 M. All NTPs were used at 0.5 mM, and transcripts were labeled by inclusion of 1% v/v 800 Ci/mM […] in the reaction. Modified NTPs were from Trilink Biotechnologies. Reactions were stopped by addition of an equal volume of 90% formamide, 50 mM EDTA, 0.01% xylene cyanol, resolved by electrophoresis in 20% acrylamide, 1% bis-acrylamide, 1×TBE gels, and visualized on a Molecular Dynamics Phosphorimager.
The ability of the wild-type, Y639F and Y639F/H784A mutants to utilize 2′-OMe-UTP and 2′-OMe-CTP, and 2′-azido-UTP and 2′-azido-CTP in RNA synthesis was tested. On a Bgl II-cut pPK5 (Mentesanas, P. E., et al., “Characterization of Bacteriophage T7 RNA Polymerase Elongation Complexes,” J. Mol. Biol. 302:1049-1062, 2000) template in which CTP and UTP are first incorporated at +14 and +15, respectively, the wild-type enzyme can synthesize 34 nucleotide (nt) run-off transcripts in reactions in which UTP is replaced with 2′-OMe-UTP (FIG. 2a, lane 2) or in reactions in which CTP is replaced with 2′-OMe-CTP (FIG. 2a, lane 3). Relative to the reaction with 4 NTPs (FIG. 2a, lane 1), yields of run-off transcripts are reduced 6-fold and 21-fold in the 2′-OMe-UTP and 2′-OMe-CTP reactions, respectively. When both UTP and CTP are replaced with the corresponding 2′-OMe-NTPs, run-off transcription with the wild-type enzyme is undetectable (FIG. 2a, lane 4). Terminated transcripts are seen in these reactions at positions where 2′-OMe-UMP or 2′-OMe-CMP are incorporated (FIG. 2a, lanes 2-4). The Y639F mutation enhances utilization of the 2′-OMe-NTPs: relative to reactions with 4 NTPs (FIG. 2a, lane 5) runoff transcription with Y639F is reduced, respectively: 2-fold, 8-fold, and 55-fold in reactions with 2′-OMe-UTP, 2′-OMe-CTP, or both (FIG. 2a, lanes 6-8). With the Y639F/H784A double mutant the reduction in run-off transcript synthesis is <15% in reactions with 2′-OMe-UTP (FIG. 2a, lane 10), and only 3-fold and 6-fold in reactions with, respectively, 2′-OMe-CTP or both 2′-OMe-UTP and 2′-OMe-CTP (FIG. 2a, lanes 11, 12).
Identical experiments were carried out with 2′-azido-UTP or 2′-azido-CTP replacing UTP or CTP, respectively (FIG. 2b). With the wild-type enzyme, run-off transcription was reduced 15- and 50-fold in reactions with 2′-azido-UTP or 2′-azido-CTP, respectively (FIG. 2b; lanes 2, 3), and was undetectable in reactions with both 2′-azido-UTP and 2′-azido-CTP (FIG. 2b; lane 4). With Y639F, use of 2′-azido-UTP or 2′-azido-CTP reduced run-off transcription by 70% (FIG. 2b; lanes 6, 7) compared to reactions with 4 NTPs (FIG. 2b; lane 5), while use of both 2′-azido-UTP and 2′-azido-CTP reduced runoff transcription by 11-fold (FIG. 2b, lane 8). With Y639F/H784A use of a single azido-modified NTP reduced run-off transcription by only 40% (FIG. 2b; lanes 10, 11), while use of two 2′-azido-NTPs reduced it by 3-fold (FIG. 2b; lane 12).

[3] = both 2′-azido-UTP and 2′-azido-CTP

Substance: W.T.: wild-type T7 RNA polymerase [reference compound]
- Activity ([1]; 2′-F-ATP replacing ATP): 6.6 ± .12
- Activity ([1]; 2′-F-CTP replacing CTP): 3.4 ± .22
- Activity ([1]; 2′-F-UTP replacing UTP): 3.1 ± .14
- Activity ([1]; 2′-NH2-ATP replacing ATP): 18 ± .39
- Activity ([1]; 2′-NH2-CTP replacing CTP): 34 ± .86
- Activity ([1]; 2′-NH2-UTP replacing UTP): 5.9 ± .27
- Activity ([1]; 2′-dATP replacing ATP): 2.7 ± .28
- Activity ([1]; 2′-dCTP replacing CTP): 1.6 ± .16
- Activity ([1]; 2′-dUTP replacing UTP): 2.4 ± .11
- Activity ([1]; ATP): 100
- Activity ([1]; CTP): 100
- Activity ([1]; UTP): 100
- Reduction of run-off transcript yield relative to 4 NTPs ([2]; 2′-OMe-CTP replacing CTP): 21 fold
- Reduction of run-off transcript yield relative to 4 NTPs ([2]; 2′-OMe-UTP replacing UTP): 6 fold
- Reduction of run-off transcription ([2]; 2′-azido-CTP replacing CTP): 50 fold
- Reduction of run-off transcription ([2]; 2′-azido-UTP replacing UTP): 15 fold
- Reduction of run-off transcript yield relative to 4 NTPs ([2]; both 2′-OMe-UTP and 2′-OMe-CTP): undetectable
- Reduction of run-off transcription [2, 3]: undetectable

Substance: Y639F: T7 RNAP with wild-type tyrosine at position 639 substituted by phenylalanine
- Activity ([1]; 2′-F-ATP replacing ATP): 50 ± 1.4
- Activity ([1]; 2′-F-CTP replacing CTP): 63 ± 3.1
- Activity ([1]; 2′-F-UTP replacing UTP): 73 ± 2.6
- Activity ([1]; 2′-NH2-ATP replacing ATP): 21 ± .75
- Activity ([1]; 2′-NH2-CTP replacing CTP): 60 ± 2.5
- Activity ([1]; 2′-NH2-UTP replacing UTP): 12 ± .41
- Activity ([1]; 2′-dATP replacing ATP): 40 ± 1.3
- Activity ([1]; 2′-dCTP replacing CTP): 57 ± 1.7
- Activity ([1]; 2′-dUTP replacing UTP): 46 ± 2.4
- Activity ([1]; ATP): 96 ± 3.0
- Activity ([1]; CTP): 103 ± 2.3
- Activity ([1]; UTP): 95 ± 6.7
- Reduction of run-off transcript yield relative to 4 NTPs ([2]; 2′-OMe-CTP replacing CTP): 8 fold
- Reduction of run-off transcript yield relative to 4 NTPs ([2]; 2′-OMe-UTP replacing UTP): 2 fold
- Reduction of run-off transcript yield relative to 4 NTPs ([2]; both 2′-OMe-UTP and 2′-OMe-CTP): 55 fold
- Reduction of run-off transcription [2, 3]: 11 fold
- Reduction of run-off transcription ([2]; single azido-modified NTP (2′-azido-UTP or 2′-azido-CTP)): 70%
